In article PMC12239085, “Silver(I) Ions Bridging Oxadiazole-2-thione Derivatives with Mitochondriotropic Agents: A Promising Strategy for Potent Anticancer Chemotherapy” (Inorganic Chemistry, 2025):

What was measured:
[1] = test system: normal human fetal lung fibroblast (MRC-5) cells; experiment: SRB toxicity assay, MRC-5; assay type: cell-based; conditions: 48 h incubation
Experimental: Stock solutions of compounds 1a–5a and 1–5 (0.01 M) in DMSO were freshly prepared and subsequently diluted with cell culture media to appropriate concentrations for various biological experiments. These included the assessment of cell viability using the SRB assay, micronucleus testing, cell morphology studies, cell cycle arrest, AO/EB staining, and mitochondrial membrane permeabilization tests. For CT-DNA binding studies, experiments were conducted in DMSO/buffer solutions. All biological experiments were performed in triplicate or more.
Stock solutions of 1a–5a and 1–5 (0.01 M) were dissolved in DMSO and subsequently diluted with cell culture medium to the desired concentrations (0.5–30 μM). MCF-7, MDA MB-231, and MRC-5 cells were plated in 96-well flat-bottom microplates at various densities: 6000, 8000, and 2000 cells per well, respectively. The cells were incubated for 24 h at 37 °C and then exposed to 1a–5a and 1–5 for 48 h. ,–
Cytotoxicity was evaluated using the SRB colorimetric assay at λ = 568 nm, with cell survival percentages calculated relative to the untreated control cells. Detailed information on the SRB assay procedure can be found in the previous publication. ,–

MCF-7 cells = experiment: Cell cycle arrest, flow cytometry; assay type: cell-based, human; conditions: for cell population in sub-G1 phase / cell population in S phase / cell population in G0/G1 phase: MCF-7, IC50 values, 48 h; for cell population in sub-G1 phase: untreated 5.1%; for cell population in S phase: untreated 9.4%; for cell population in G0/G1 phase: untreated 38.8%
Experimental: The MCF-7 cells were seeded into a 24-well plate (70,000 cells per well) and cultured at 37 °C for 24 h. […] For each sample, 10,000 events were recorded. The resulting DNA histograms were drawn and quantified using the FlowJo software (version FlowJo X 10.0.7r2). This assay was performed as reported previously. ,–

| Structure (SMILES) | IC50 [1] [µM] | Relative rate of MCF-7 cells in sub-G1 phase compared to untreated cells (MCF-7 cells) | cell population in sub-G1 phase (MCF-7 cells) [%] | cell population in S phase (MCF-7 cells) [%] | cell population in G0/G1 phase (MCF-7 cells) [%] | fold higher increase in MCF-7 sub-G1 population compared to the other compounds and cisplatin (MCF-7 cells) [fold] |
| --- | --- | --- | --- | --- | --- | --- |
| c1ccc(-c2nnc([S][Ag]([PH](c3ccccc3)(c3ccccc3)c3ccccc3)([PH](c3ccccc3)(c3ccccc3)c3ccccc3)[PH](c3ccccc3)(c3ccccc3)c3ccccc3)o2)cc1 [compound 1] | 3.77 ± 0.16 | 2.8 | 14.5 | 15.4 |  |  |
| Fc1ccccc1-c1nnc([S][Ag]([PH](c2ccccc2)(c2ccccc2)c2ccccc2)([PH](c2ccccc2)(c2ccccc2)c2ccccc2)[PH](c2ccccc2)(c2ccccc2)c2ccccc2)o1 [compound 2] | 3.12 ± 0.11 | 1.7 | 8.9 |  | 76.9 |  |
| Fc1ccc(-c2nnc([S][Ag]([PH](c3ccccc3)(c3ccccc3)c3ccccc3)([PH](c3ccccc3)(c3ccccc3)c3ccccc3)[PH](c3ccccc3)(c3ccccc3)c3ccccc3)o2)cc1 [compound 3] | 2.72 ± 0.19 | 2.5 | 12.8 |  | 72.0 |  |
| Clc1ccccc1-c1nnc([S][Ag]([PH](c2ccccc2)(c2ccccc2)c2ccccc2)([PH](c2ccccc2)(c2ccccc2)c2ccccc2)[PH](c2ccccc2)(c2ccccc2)c2ccccc2)o1 [compound 4] | 4.07 ± 0.24 | 2.6 |  | 26.5 |  | 3 |
| Clc1cccc(-c2nnc([S][Ag]([PH](c3ccccc3)(c3ccccc3)c3ccccc3)([PH](c3ccccc3)(c3ccccc3)c3ccccc3)[PH](c3ccccc3)(c3ccccc3)c3ccccc3)o2)c1 [compound 5] | 2.89 ± 0.08 | 8.1 | 41.1 | 48.3 |  |  |
